Counter-ions that a name gives are not always drawn. Like-named read-outs stand apart in the source and are kept apart here. Marks after values point to notes of the source that are not given here.
Assays:
GII Pro = assay: FRET protease assay; type: biochemical, Human norovirus GII.4 Sydney 2012; conditions: normalized to 0-µM inhibitor control
Source text: (§1) A fluorescent resonance energy transfer assay was used to measure the activities of Pro and ProPol as described in reference ([46]). The peptide substrate, 5(6)-carboxyfluorescein (FAM)-[…]-Dabcyl utilized in reactions, was based on the NS1-2/NS3 cleavage site of HuNV GII.4 Sydney 2012, and the scissile bond is shown in bold.

GII Pol [1] = target: T1, GII Pol (Norovirus Hu/GII.4/Sydney/NSW0514/2012/AU, UniProt K4L8Z7); assay: biochemical; conditions: for IC50: read-out: IC50 polymerase activity
GII ProPol [2] = target: T2, GII ProPol (Norovirus Hu/GII.4/Sydney/NSW0514/2012/AU, UniProt K4L8Z7, E1189A); assay: FRET protease assay; type: biochemical, Human norovirus GII.4 Sydney 2012
Source text: as §1

GII ProPol [3] = target: T2, GII ProPol; assay: biochemical; set-up: species or system Human norovirus GII.4 Sydney 2012
GII Pol [4] = target: T1, GII Pol; assay: Steady-state kinetics of de novo polymerase activity (PicoGreen); type: biochemical, Human norovirus GII.4 Sydney 2012; conditions: (95% CI)
Experimental: (§2) De novo polymerase activity was measured by monitoring the formation of dsRNA from a single-stranded homopolymeric RNA template using PicoGreen as described previously ([69]). Optimal pH (range of 7.0–8.0), concentrations of MnCl2 (2.5 mM), and DTT (5 mM) for HuNV were previously established ([17], [52]). Concentrations of NaCl in the final polymerase reaction were maintained below 10 mM ([17]).
(§3) Standard reactions were performed in 25 µL, containing 5 mM DTT, 2.5 mM MnCl2, 20 ng/µL RNA template, 0.5 mM NTP in 20 mM Tris pH 7.5. Reactions were initiated with the indicated concentration of enzyme and allowed to proceed for a set period at 37°C before being terminated with 10 mM EDTA. PicoGreen (1:350 dilution) (Invitrogen, Waltham, MA, USA) was added to bind the dsRNA, and fluorescence was measured on a Varioskan Flash (Thermo Fisher Scientific, Waltham, MA, USA) plate reader with excitation at 480 nm and emission at 520 nm.
(§4) Kinetics of nucleotide incorporation by polymerase proteins was analyzed by titrating NTP concentration under standard reaction conditions for the linear time period of the enzyme. Kinetics of RNA template utilization was analyzed in the same manner but with titration of the homopolymeric template. The velocity of the reaction against substrate concentration was plotted, and the kinetic parameters were determined by non-linear regression using the Michaelis-Menten model in GraphPad Prism version 9.2.0 (La Jolla, CA, USA). All enzyme kinetics was performed with three independent preparations of protein, with triplicate wells for each replicate.

GII ProPol [5] = target: T2, GII ProPol; assay: as above; type: biochemical, Human norovirus GII.4 Sydney 2012
GI Pol [6] = target: T3, GI Pol (Southampton virus, UniProt Q04544); assay: De novo polymerase inhibition assay (PicoGreen dsRNA formation); type: biochemical
norovirus Pro = test system: norovirus Pro; set-up: method as in PMID 32321856, PMID 38005879; conditions: read-out: IC50 protease activity; cited from earlier work
GII ProPol [7] = target: T2, GII ProPol; assay: Steady-state kinetics of de novo polymerase activity (PicoGreen); type: biochemical, Human norovirus GII.4 Sydney 2012; conditions: (95% CI)
Experimental: as §2, §3, §4

GI ProPol [8] = target: T4, GI ProPol (Southampton virus, UniProt Q04544, E1280A); assay: as above; type: biochemical, Human norovirus GI Southampton; conditions: GI ProPol 250 nM, (95% CI)
Experimental: as §2, §3, §4

GI Pol [9] = target: T3, GI Pol; assay: as above; type: biochemical, Human norovirus GI Southampton; conditions: GI Pol 75 nM, (95% CI)
Experimental: as §2, §3, §4

GII Pol [10] = test system: GII Pol; set-up: method as in PMID 24316032, PMID 31804593, PMID 30584800; conditions: read-out: IC50 polymerase; cited from earlier work
GI ProPol [11] = target: T4, GI ProPol; assay: De novo polymerase inhibition assay (PicoGreen dsRNA formation); type: biochemical, Human norovirus GI Southampton
[12] = GII ProPol 1 µM, ATP 0 to 2000 µM, 80 ng/µL poly(U), (95% CI)
[13] = 0, 3 and 30 µM, poly(C) template
[14] = GII ProPol 2 µM, poly(A) 0 to 400 ng/µL, 0.5 mM UTP, 60 min
[15] = GII Pol 2 µM, poly(U) 0 to 160 ng/µL, 0.5 mM ATP, 20 min
[16] = poly(C) 0 to 80 ng/µL, 0.5 mM GTP
[17] = GII Pol 35 nM, poly(C) 0 to 80 ng/µL, 0.5 mM GTP
[18] = GII ProPol 35 nM, poly(C) 0 to 80 ng/µL, 0.5 mM GTP
[19] = GTP 0 to 1,000 µM, 20 ng/µL poly(C)

Question: With `O=C(Nc1cccc(C(=O)Nc2ccc(S(=O)(=O)O)c3cc(S(=O)(=O)O)cc(S(=O)(=O)O)c23)c1)Nc1cccc(C(=O)Nc2ccc(S(=O)(=O)O)c3cc(S(=O)(=O)O)cc(S(=O)(=O)O)c23)c1` [NF023, 8,8′-[carbonylbis(imino-3,1-phenylenecarbonylimino)]bis-1,3,5-naphthalene-trisulphonic acid] as the molecule, how does the “protease activity in the presence of inhibitor” value (from here on “protease activity … of inhibitor”) (GII Pro) read?
Answer: not affected

Question: For `Nc1ncnc2c([C@@H]3N[C@H](COP(=O)(O)OP(=O)(O)OP(=O)(O)O)[C@@H](O)[C@H]3O)c[nH]c12` [Gal-TP, galidesivir triphosphate], which IC50 (GII Pol [1]; GII Pol 2 µM, 8 ng/µL poly(U) template, 400 µM ATP) is on record?
Answer: 154 µM

Question: What about the “protease activity … of inhibitor” value (GII Pro) of the same molecule?
Answer: did not affect protease activity to a level of significance

Question: And the “protease activity … of inhibitor” value (GII ProPol [2]; 30 µM inhibitor)?
Answer: observable decrease in ProPol activity

Question: And the “protease activity … of inhibitor” value (GII ProPol [2]; normalized to 0-µM inhibitor control)?
Answer: did not affect protease activity to a level of significance

Question: And the IC50 (GII ProPol [3])?
Answer: 247 µM

Question: And the “fold difference between the IC50 values (GII ProPol vs GII Pol)” value (GII ProPol [3]; poly(U) template)?
Answer: 1.6 fold

Question: Which “kcat ATP” value (GII Pol [4]; GII Pol 2 µM, ATP 0 to 2000 µM, 80 ng/µL poly(U)) does the source give for `Nc1ncnc2c1ncn2[C@@H]1O[C@H](COP(=O)(O)OP(=O)(O)OP(=O)(O)O)[C@@H](O)[C@H]1O` [ATP] here?
Answer: 0.3 (0.2–0.33) s^−1

Question: And the Km (GII Pol [4]; GII Pol 2 µM, ATP 0 to 2000 µM, 80 ng/µL poly(U), read-out: Km ATP)?
Answer: 416 µM

Question: What about the Km (GII ProPol [5]; [12]) of the same molecule?
Answer: 484 µM

Question: What about the “kcat ATP” value (GII ProPol [5]; [12]) of the same molecule?
Answer: 0.6 (0.5–0.7) s^−1

Question: Which “polymerase activity in the presence of inhibitor” value (GI Pol [6]; [13]) does the source give for `O=C[C@H](C[C@@H]1CCNC1=O)NC(=O)[C@H](CC1CCCCC1)NC(=O)c1cc2ccccc2[nH]1` [NV-004] here?
Answer: no decrease in polymerase activity

Question: What about the “polymerase activity in the presence of inhibitor” value (GII Pol [1]; [13]) of the same molecule?
Answer: no decrease in polymerase activity

Question: What about the IC50 (norovirus Pro) of the same molecule?
Answer: 0.37 µM

Question: And the remaining activity at 30 µM (GII ProPol [3]; read-out: polymerase activity compared with 0-µM control)?
Answer: 76%

Question: Which “Km poly(A)” value (GII ProPol [7]; [14]) does the source give for poly(A) here?
Answer: 23.6 (19.0–29.3)^a ng/μL

Question: And the “kcat poly(A)” value (GII ProPol [7]; [14])?
Answer: 0.42 (0.39–0.45) s^−1

Question: For `O=c1ccn([C@@H]2O[C@H](COP(=O)(O)OP(=O)(O)OP(=O)(O)O)[C@@H](O)[C@H]2O)c(=O)[nH]1` [UTP], which “kcat UTP” value (GII ProPol [7]; GII ProPol 2 µM, nucleotide 0 to 2000 µM, 20 ng/µL poly(A), 60 min) is on record?
Answer: 0.36 (0.32–0.41) s^−1

Question: And the Km (GII ProPol [7]; GII ProPol 2 µM, nucleotide 0 to 2000 µM, 20 ng/µL poly(A), 60 min, read-out: Km UTP)?
Answer: 438 µM

Question: Which “Km poly(U)” value (GII Pol [4]; [15]) does the source give for poly(U) here?
Answer: 29.6 (19.7–45.0) ng/μL

Question: What about the “kcat poly(U)” value (GII Pol [4]; [15]) of the same molecule?
Answer: 1.4 (1.2–1.7) s^−1

Question: And the “kcat poly(U)” value (GII ProPol [7]; GII ProPol 1 µM, poly(U) 0 to 160 ng/µL, 0.5 mM ATP, 20 min)?
Answer: 1.9 (1.6–2.2) s^−1

Question: And the “Km poly(U)” value (GII ProPol [7]; GII ProPol 1 µM, poly(U) 0 to 160 ng/µL, 0.5 mM ATP, 20 min, Michaelis-Menten)?
Answer: 7.9 (4.7–13.2)^a ng/μL

Question: What about the “Km as estimated by half Vmax” value (GII ProPol [5]; GII ProPol with poly(U), allosteric sigmoidal model) of the same molecule?
Answer: 6.8 ng/µL

Question: For poly(C), which “Km poly(C)” value (GI ProPol [8]; poly(C) 0 to 80 ng/µL, 0.5 mM GTP, 10 min 37°C) is on record?
Answer: 15.6 (12.0–20.2)^a ng/μL

Question: And the “kcat poly(C)” value (GI ProPol [8]; [16])?
Answer: 0.4 (0.35–0.42) s^−1

Question: And the “Km poly(C)” value (GI Pol [9]; [16])?
Answer: 6.5 (5.2–8.0) ng/μL

Question: And the “kcat poly(C)” value (GI Pol [9]; [16])?
Answer: 1.4 (1.3–1.6) s^−1

Question: What about the “Km poly(C)” value (GII Pol [4]; [17]) of the same molecule?
Answer: 8.8 (6.9–11.3) ng/μL

Question: And the “kcat poly(C)” value (GII Pol [4]; [17])?
Answer: 1.4 (1.3–1.5) s^−1

Question: And the “Km poly(C)” value (GII ProPol [7]; [18])?
Answer: 5.9 (4.7–7.3) ng/μL

Question: What about the “kcat poly(C)” value (GII ProPol [7]; [18]) of the same molecule?
Answer: 1.1 (1.0–1.2) s^−1

Question: What does the source list for `Cc1nc(/N=N/c2cc(S(=O)(=O)O)c3cc([N+](=O)[O-])cc(S(=O)(=O)O)c3c2)c(COP(=O)(O)O)c(C=O)c1O` [PPNDS, pyridoxal‐5′‐phosphate‐6‐(2′‐naphthylazo‐6′‐nitro‐4′,8′‐disulfonate) tetrasodium salt]?
Answer: IC50 (GII Pol [10]): 0.45 to 1.5 µM; IC50 (GI Pol [6]; GI Pol 75 nM, 6 ng/µL poly(C) template, 150 µM GTP): 3.4 µM; IC50 (GII Pol [1]): 0.5 µM; IC50 (GI ProPol [11]): 6.8 µM; IC50 (GII ProPol [3]): 3.8 µM

Question: With `Nc1nc2c(ncn2[C@@H]2O[C@H](COP(=O)(O)OP(=O)(O)OP(=O)(O)O)[C@@H](O)[C@H]2O)c(=O)[nH]1` [GTP] as the molecule, how does the Km (GI ProPol [8]; [19]) read?
Answer: 91.5 µM

Question: What about the “kcat GTP” value (GI ProPol [8]; [19]) of the same molecule?
Answer: 0.24 s⁻¹

Question: And the Km (GI Pol [9]; [19])?
Answer: 150 µM

Question: And the “kcat GTP” value (GI Pol [9]; [19])?
Answer: 1.7 (1.47–1.96) s^−1

Question: What about the “kcat GTP” value (GII Pol [4]; GII Pol 35 nM, GTP 0 to 500 µM, 20 ng/µL poly(C)) of the same molecule?
Answer: 1.6 (1.40–1.96) s^−1

Question: What about the Km (GII Pol [4]; GII Pol 35 nM, GTP 0 to 500 µM, 20 ng/µL poly(C), read-out: Km GTP) of the same molecule?
Answer: 80.3 µM

Question: And the “kcat GTP” value (GII ProPol [7]; GII ProPol 35 nM, GTP 0 to 500 µM, 20 ng/µL poly(C))?
Answer: 0.78 (0.69–0.87) s^−1

Question: And the Km (GII ProPol [7]; GII ProPol 35 nM, GTP 0 to 500 µM, 20 ng/µL poly(C), read-out: Km GTP)?
Answer: 25.3 µM

Reference: article PMC11575396, “Activity and cryo-EM structure of the polymerase domain of the human norovirus ProPol precursor” (Journal of Virology, 2024)
